Source: ChEMBL document CHEMBL4418499, “Inhibitors of trim33 and methods of use” (2018)

Key:
[1] = molecular target: T1, E3 ubiquitin-protein ligase TRIM33 (Homo sapiens, UniProt Q9UPN9); experiment: Inhibition of recombinant TRIM33 PHD bromodomain (unknown origin) using biotinylated H3 peptide (H3K9me3K18ac) by AlphaScreen assay
T1 sequence (Q9UPN9 whole entry): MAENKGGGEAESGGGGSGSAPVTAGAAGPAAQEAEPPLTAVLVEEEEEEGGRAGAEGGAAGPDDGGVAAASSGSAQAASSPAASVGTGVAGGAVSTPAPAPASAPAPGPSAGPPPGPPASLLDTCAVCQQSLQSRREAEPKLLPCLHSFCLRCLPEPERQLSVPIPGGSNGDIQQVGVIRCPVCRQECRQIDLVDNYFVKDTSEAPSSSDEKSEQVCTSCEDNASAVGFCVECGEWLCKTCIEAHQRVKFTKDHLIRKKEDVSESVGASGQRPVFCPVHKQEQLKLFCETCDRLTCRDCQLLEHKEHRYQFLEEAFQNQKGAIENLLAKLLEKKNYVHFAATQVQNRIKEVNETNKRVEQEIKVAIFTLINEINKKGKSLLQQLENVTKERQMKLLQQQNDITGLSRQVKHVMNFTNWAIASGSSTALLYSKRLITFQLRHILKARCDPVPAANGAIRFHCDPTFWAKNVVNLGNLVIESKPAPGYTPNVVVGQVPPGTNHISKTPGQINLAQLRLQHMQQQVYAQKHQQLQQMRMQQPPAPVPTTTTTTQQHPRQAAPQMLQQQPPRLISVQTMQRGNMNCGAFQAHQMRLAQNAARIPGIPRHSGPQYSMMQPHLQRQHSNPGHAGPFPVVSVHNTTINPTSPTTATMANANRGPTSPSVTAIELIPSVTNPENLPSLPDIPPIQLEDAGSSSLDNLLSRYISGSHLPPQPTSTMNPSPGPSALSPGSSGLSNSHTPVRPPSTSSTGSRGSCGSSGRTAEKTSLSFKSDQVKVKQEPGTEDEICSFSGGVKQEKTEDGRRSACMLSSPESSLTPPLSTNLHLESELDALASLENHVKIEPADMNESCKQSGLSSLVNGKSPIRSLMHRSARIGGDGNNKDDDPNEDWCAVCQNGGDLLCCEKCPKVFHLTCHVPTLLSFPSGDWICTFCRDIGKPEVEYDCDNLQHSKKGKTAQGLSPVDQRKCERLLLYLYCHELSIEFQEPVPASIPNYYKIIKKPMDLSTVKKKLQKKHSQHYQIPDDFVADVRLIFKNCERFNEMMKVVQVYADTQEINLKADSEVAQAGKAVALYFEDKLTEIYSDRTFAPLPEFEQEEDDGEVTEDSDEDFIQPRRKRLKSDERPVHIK

[2] = molecular target: T2, Transcription intermediary factor 1-alpha (Homo sapiens, UniProt O15164); experiment: Inhibition of recombinant TRIM24 (unknown origin) using biotinylated H3 peptide (H3K9me3K18ac) by AlphaScreen assay
T2 sequence (O15164 whole entry): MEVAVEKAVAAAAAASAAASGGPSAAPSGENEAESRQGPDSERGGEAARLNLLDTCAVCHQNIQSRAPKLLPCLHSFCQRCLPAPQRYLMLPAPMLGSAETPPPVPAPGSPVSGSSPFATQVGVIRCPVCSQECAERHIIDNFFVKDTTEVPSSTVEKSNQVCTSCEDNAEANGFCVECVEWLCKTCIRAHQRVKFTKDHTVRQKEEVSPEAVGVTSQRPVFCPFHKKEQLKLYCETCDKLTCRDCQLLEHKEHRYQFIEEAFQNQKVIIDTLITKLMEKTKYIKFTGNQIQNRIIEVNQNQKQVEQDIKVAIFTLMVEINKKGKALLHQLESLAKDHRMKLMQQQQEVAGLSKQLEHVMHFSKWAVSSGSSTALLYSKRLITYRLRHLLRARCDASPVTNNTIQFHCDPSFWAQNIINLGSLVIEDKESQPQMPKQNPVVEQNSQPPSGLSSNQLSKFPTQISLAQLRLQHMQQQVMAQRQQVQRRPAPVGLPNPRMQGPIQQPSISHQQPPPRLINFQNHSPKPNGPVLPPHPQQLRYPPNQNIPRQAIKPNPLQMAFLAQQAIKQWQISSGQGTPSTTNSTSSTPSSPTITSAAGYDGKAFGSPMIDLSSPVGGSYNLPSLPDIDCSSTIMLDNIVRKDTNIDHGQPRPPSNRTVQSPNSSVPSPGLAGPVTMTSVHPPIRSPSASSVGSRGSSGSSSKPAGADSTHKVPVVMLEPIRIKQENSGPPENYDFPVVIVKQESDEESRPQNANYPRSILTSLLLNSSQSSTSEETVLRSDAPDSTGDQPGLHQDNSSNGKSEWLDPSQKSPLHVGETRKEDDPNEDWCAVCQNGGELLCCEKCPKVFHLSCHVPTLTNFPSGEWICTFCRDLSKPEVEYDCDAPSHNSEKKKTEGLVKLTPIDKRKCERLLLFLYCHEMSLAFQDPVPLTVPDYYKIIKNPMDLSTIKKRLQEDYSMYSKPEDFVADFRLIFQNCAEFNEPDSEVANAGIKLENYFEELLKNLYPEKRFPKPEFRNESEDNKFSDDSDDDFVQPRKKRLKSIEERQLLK

[3] = species on record: Homo sapiens; experiment: Selectivity index, ratio of IC50 for recombinant TRIM24 (unknown origin) to IC50 for recombinant TRIM33 PHD bromodomain (unknown origin)

Row | SMILES | IC50 [1] [µM] | IC50 [2] [µM] | Ratio IC50 [3]
1 | CCCOc1ccn2c(C(C)=O)cc(-c3nc4ccccn4c3NCCN3CCOCC3)c2c1 | 69.6 | 250 | 3.6
2 | CCCOc1ccn2c(C(C)=O)cc(-c3nc4ccc(C(=O)OC)cn4c3Nc3ccc(OC)cc3)c2c1 | 48.6 | 355 | 7.3
3 | Cc1nc(-c2nc3ccc(Br)cn3c2NCCN2CCOCC2)c[nH]1 | 450 | 194 | 0.43
4 | COCCNc1c(-c2ccc3nccn3c2)nc2ccccn12 | 139 | 5800 | 41.7
5 | CCCOc1ccn2c(C(C)=O)cc(-c3nc4ccc(C(=O)OC)cn4c3NCCN3CCOCC3)c2c1 | 95.6 | 1040 | 10.9
6 | CCCOc1ccn2c(C(C)=O)cc(-c3nc4cnccn4c3NCc3ccc(C#N)cc3)c2c1 | 66 | 819 | 12.4
7 | Cc1nc(-c2nc3cnccn3c2NCc2ccc(C#N)cc2)c[nH]1 | 207 | 54.8 | 0.26
8 | CCCOc1ccn2c(C(C)=O)cc(-c3nc4cnccn4c3NCCN3CCOCC3)c2c1 | 151 | 4980 | 32.9
9 | COc1ccc(Nc2c(-c3ccc4nccn4c3)nc3ccc(Br)cn23)cc1 | 70.3 | 224 | 3.19
10 | COC(=O)c1ccc2nc(-c3nc[nH]c3C)c(NCc3ccc(C#N)cc3)n2c1 | 113 | 319 | 2.83
11 | COC(=O)c1ccc2nc(-c3c[nH]c(C)n3)c(NCCN3CCOCC3)n2c1 | 71.4 | 2870 | 40.3
12 | COCCNc1c(-c2ccc3nccn3c2)nc2ccc(Br)cn12 | 156 | 706 | 4.53
13 | N#Cc1ccc(CNc2c(-c3ccc4nccn4c3)nc3ccc(Br)cn23)cc1 | 48.1 | 296 | 6.16
14 | c1cn2c(NCCN3CCOCC3)c(-c3ccc4nccn4c3)nc2cn1 | 259 | 2190 | 8.45
15 | CCCOc1ccn2c(C(C)=O)cc(-c3nc4ccccn4c3NCCOC)c2c1 | 47.5 | 445 | 9.36

These reach a lower IC50 [1]. Values come first.

Row | IC50 [1] [µM] | IC50 [2] [µM] | Ratio IC50 [3] | SMILES
16 | 38.3 | 88.3 | 2.3 | COc1ccc(Nc2c(-c3ccc4nccn4c3)nc3cnccn23)cc1
17 | 27.8 | 242 | 8.73 | Cc1nc(-c2nc3ccccn3c2NCCN2CCOCC2)c[nH]1
18 | 22.2 | 375 | 16.9 | COC(=O)c1ccc2nc(-c3ccc4nccn4c3)c(Nc3ccc(OC)cc3)n2c1
19 | 21.7 | 372 | 17.1 | CCCOc1ccn2c(C(C)=O)cc(-c3nc4ccccn4c3NCCc3ccc(OC)c(OC)c3)c2c1
20 | 19.3 | 77.2 | 3.99 | COC(=O)c1ccc2nc(-c3nc[nH]c3C)c(Nc3ccc(OC)cc3)n2c1
21 | 18.9 | 180 | 9.48 | COC(=O)c1ccc2nc(-c3c[nH]c(C)n3)c(NC3CCCCC3)n2c1
22 | 17.2 | 141 | 8.16 | COCCNc1c(-c2c[nH]c(C)n2)nc2ccccn12
23 | 16.4 | 42.8 | 2.61 | Cc1[nH]cnc1-c1nc2ccccn2c1NCc1ccc(C#N)cc1
24 | 16.3 | 35.4 | 2.17 | COCCNc1c(-c2nc[nH]c2C)nc2ccccn12
25 | 14.7 | 7.32 | 0.5 | COc1ccc(Nc2c(-c3nc[nH]c3C)nc3cnccn23)cc1
26 | 13.8 | 249 | 18.1 | c1ccn2c(NC3CCCCC3)c(-c3ccc4nccn4c3)nc2c1
27 | 11.3 | 81.7 | 7.21 | Cc1nc(-c2nc3ccc(Br)cn3c2NCc2ccc(C#N)cc2)c[nH]1
28 | 9.6 | 159 | 16.6 | CCCOc1ccn2c(C(C)=O)cc(-c3nc4ccccn4c3Nc3ccc(OC)cc3)c2c1
29 | 8.72 | 142 | 16.2 | CCCOc1ccn2c(C(C)=O)cc(-c3nc4ccccn4c3NC3CCCCC3)c2c1
30 | 8.57 | 111 | 13 | COC(=O)c1ccc2nc(-c3c[nH]c(C)n3)c(Nc3ccc(OC)cc3)n2c1
31 | 7.88 | 243 | 30.8 | COCCNc1c(-c2c[nH]c(C)n2)nc2ccc(Br)cn12
32 | 7.17 | 622 | 86.8 | COC(=O)c1ccc2nc(-c3c[nH]c(C)n3)c(NCCc3ccc(OC)c(OC)c3)n2c1
33 | 5.9 | 96.5 | 16.4 | Cc1nc(-c2nc3ccccn3c2NC2CCCCC2)c[nH]1
34 | 1.36 | 31.7 | 23.2 | COc1ccc(CCNc2c(-c3nc[nH]c3C)nc3ccccn23)cc1OC
35 | 1.03 | 8.48 | 8.27 | Cc1[nH]cnc1-c1nc2ccc(Br)cn2c1NC1CCCCC1
36 | 0.00319 | 1.71 | 538 | COc1ccc(Nc2c(-c3c[nH]c(C)n3)nc3ccccn23)cc1
